Measurements published in patent US20260274799A1, “HETEROCYCLIC DERIVATIVES, COMPOSITIONS AND USES THEREOF” (DANATLAS PHARMACEUTICALS CO., LTD., priority 2023, published 2026).
Where two headings read alike, the source gives them in different places.

Molecular target: T1, PPARγ-LBD (UniProt ID: P37231-2) (Homo sapiens, UniProt P37231)
T1 construct: PPARγ-LBD (UniProt ID: P37231-2) was expressed and purified in insect system; made in house
T1 sequence (P37231 238-503 limits assumed): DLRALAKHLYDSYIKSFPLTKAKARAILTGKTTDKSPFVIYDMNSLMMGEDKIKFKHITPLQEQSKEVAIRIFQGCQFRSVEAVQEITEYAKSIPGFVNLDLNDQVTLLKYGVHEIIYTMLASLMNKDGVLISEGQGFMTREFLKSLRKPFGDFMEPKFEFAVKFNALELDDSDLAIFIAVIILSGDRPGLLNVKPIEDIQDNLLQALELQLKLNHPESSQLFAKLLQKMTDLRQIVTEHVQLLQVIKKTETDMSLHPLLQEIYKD
Assay: PPARγ-SMRT recruitment assay (TR-FRET)
Format: biochemical
Conditions: for EC50: TR-FRET, SMRT peptide recruitment to PPARγ-LBD, 120 min pre-incubation; for Emax: 1 h, read-out: Top %
Description: PPARγ TR-FRET assay was initiated to evaluate potential activatory effect of the compounds of the present disclosure for SMRT recruitment to PPARγ protein. PPARγ-LBD (UniProt ID: P37231-2) was expressed and purified in insect system and stored at −80° C. in aliquots. Biotinylated SMRT peptide was synthesized (Biotin-[…]). 5 μL protein solution mixture consisting of 10 nM PPARγ-LBD and 2 nM Anti-His Eu (Cisbio, 61HISKLA) in assay buffer (25 mM HEPES pH7.4, 25 mM KCl, 1 mM EDTA, 0.01% BSA, 0.01% Tween-20, 1 mM TCEP) was added to 384-well plates containing duplicate 10-point dose response titration of compounds in 5 μL assay buffer (1% f.c. DMSO(v/v)). After 120 min pre-incubation at room temperature, 5 μL peptide solution mixture consisting of 50 nM Biotin-SMRT peptide and 25 nM Streptavidin-XL665 (Cisbio, 610SAXLA) added to plates. Plates were incubated for 60 min. and read in CLARIOstar Plus plate reader with Ex/Em 620 nm/[…]. Average TR-FRET ratio of high control (Wells with 10 uM control compound) was calculated as High Control (HC). Average TR-FRET ratio of low control (Wells with 1% DMSO) was calculated as Low control (LC). For one compound, top % is the max value of % Activation.
EC50 values were determined by fitting the data to the standard 4 parameters with Hill Slope using GraphPad Prism software. […] ND: No Determine.

[1] = max value of % Activation, high control 10 uM control compound, low control 1% DMSO

Row | SMILES | EC50 | Emax [1] | Emax
1 | CS(=O)(=O)c1ccc(C#N)cc1-c1cc(=O)c2c(F)c(C#CC3CCOC3)c(F)cc2[nH]1 (stereo not drawn) [Example 34, 3-(5,7-Difluoro-4-oxo-6-((tetrahydrofuran-3-yl)ethynyl)-1,4-dihydroquinolin-2-yl)-4-(methylsulfonyl)benzonitrile] | < 0.1 µM | 290% | 
2 | CS(=O)(=O)c1ccc(C#N)cc1-c1cc(=O)c2c(F)c(C#Cc3ccccc3OC(F)(F)F)c(F)cc2[nH]1 [Example 36, 3-(5,7-Difluoro-4-oxo-6-((2-(trifluoromethoxy)phenyl)ethynyl)-1,4-dihydroquinolin-2-yl)-4-(methylsulfonyl)benzonitrile] | < 0.1 µM | 322% | 
3 | CS(=O)(=O)c1ccc(C#N)cc1-c1cc(=O)c2c(F)c(C#Cc3ccccc3OC(F)F)c(F)cc2[nH]1 [Example 37, 3-(6-((2-(Difluoromethoxy)phenyl)ethynyl)-5,7-difluoro-4-oxo-1,4-dihydroquinolin-2-yl)-4-(methylsulfonyl)benzonitrile] | < 0.1 µM | 406% | 
4 | CS(=O)(=O)c1ccc(C#N)cc1-c1cc(=O)c2c(F)c(C#Cc3ccccc3C(F)(F)F)c(F)cc2[nH]1 [Example 44, 3-(5,7-Difluoro-4-oxo-6-((2-(trifluoromethyl)phenyl)ethynyl)-1,4-dihydroquinolin-2-yl)-4-(methylsulfonyl)benzonitrile] | < 0.1 µM | 286% | 
5 | CC1(C#Cc2c(F)cc3[nH]c(-c4cc(C#N)ccc4S(C)(=O)=O)cc(=O)c3c2F)COC1 [Example 45, 3-(5,7-Difluoro-6-((3-methyloxetan-3-yl)ethynyl)-4-oxo-1,4-dihydroquinolin-2-yl)-4-(methylsulfonyl)benzonitrile] | < 0.1 µM | 249% | 
6 | CCS(=O)(=O)c1ccc(C#N)cc1-c1cc(=O)c2c(F)c(C#CC3COC3)c(F)cc2[nH]1 [Example 46, 3-(5,7-Difluoro-6-(oxetan-3-ylethynyl)-4-oxo-1,4-dihydroquinolin-2-yl)-4-(ethylsulfonyl)benzonitrile] | < 0.1 µM | 174% | 
7 | CS(=O)(=O)c1ccc(C#N)cc1-c1cc(=O)c2c(F)c(C#Cc3ccncc3OC(F)F)c(F)cc2[nH]1 [Example 47, 3-(6-((3-(Difluoromethoxy)pyridin-4-yl)ethynyl)-5,7-difluoro-4-oxo-1,4-dihydroquinolin-2-yl)-4-(methylsulfonyl)benzonitrile] | < 0.1 µM |  | 376%
8 | CC(C)(C#Cc1c(F)cc2[nH]c(-c3cc(C#N)ccc3S(C)(=O)=O)cc(=O)c2c1F)S(C)(=O)=O [Example 48, 3-(5,7-Difluoro-6-(3-methyl-3-(methylsulfonyl)but-1-yn-1-yl)-4-oxo-1,4-dihydroquinolin-2-yl)-4-(methylsulfonyl)benzonitrile] | < 0.1 µM |  | 
9 | COCCC#Cc1c(F)cc2[nH]c(-c3cc(C#N)ccc3S(C)(=O)=O)cc(=O)c2c1F [Example 49, 3-(5,7-Difluoro-6-(4-methoxybut-1-yn-1-yl)-4-oxo-1,4-dihydroquinolin-2-yl)-4-(methylsulfonyl)benzonitrile] | < 0.1 µM |  | 
10 | COC(C)(C)C#Cc1c(F)cc2[nH]c(-c3cc(C#N)ccc3S(C)(=O)=O)cc(=O)c2c1F [Example 50, 3-(5,7-Difluoro-6-(3-methoxy-3-methylbut-1-yn-1-yl)-4-oxo-1,4-dihydroquinolin-2-yl)-4-(methylsulfonyl)benzonitrile] | < 0.1 µM | 372% | 
11 | CS(=O)(=O)c1ccc(C#N)cc1-c1cc(=O)c2c(F)c(C#CC3CCOCC3)c(F)cc2[nH]1 [Example 52, 3-(5,7-Difluoro-4-oxo-6-((tetrahydro-2H-pyran-4-yl)ethynyl)-1,4-dihydroquinolin-2-yl)-4-(methylsulfonyl)benzonitrile] | < 0.1 µM |  | 

Second part, led by results:

Row | EC50 | Emax [1] | SMILES | Emax
12 | < 0.1 µM |  | Cc1cc(C#Cc2c(F)cc3[nH]c(-c4cc(C#N)ccc4S(C)(=O)=O)cc(=O)c3c2F)ccn1 [Example 27, 3-(5,7-Difluoro-6-((2-methylpyridin-4-yl)ethynyl)-4-oxo-1,4-dihydroquinolin-2-yl)-4-(methylsulfonyl)benzonitrile] | 
13 | < 0.1 µM | 293% | Cc1cnccc1C#Cc1c(F)cc2[nH]c(-c3cc(C#N)ccc3S(C)(=O)=O)cc(=O)c2c1F [Example 28, 3-(5,7-Difluoro-6-((3-methylpyridin-4-yl)ethynyl)-4-oxo-1,4-dihydroquinolin-2-yl)-4-(methylsulfonyl)benzonitrile] | 
14 | < 0.1 µM | 357% | Cc1ncccc1C#Cc1c(F)cc2[nH]c(-c3cc(C#N)ccc3S(C)(=O)=O)cc(=O)c2c1F [Example 29, 3-(5,7-Difluoro-6-((2-methylpyridin-3-yl)ethynyl)-4-oxo-1,4-dihydroquinolin-2-yl)-4-(methylsulfonyl)benzonitrile] | 
15 | < 0.1 µM | 283% | COc1ccccc1C#Cc1c(F)cc2[nH]c(-c3cc(C#N)ccc3S(C)(=O)=O)cc(=O)c2c1F [Example 30, 3-(5,7-Difluoro-6-((2-methoxyphenyl)ethynyl)-4-oxo-1,4-dihydroquinolin-2-yl)-4-(methylsulfonyl)benzonitrile] | 
16 | < 0.1 µM | 181% | Cc1cccc(C#Cc2c(F)cc3[nH]c(-c4cc(C#N)ccc4S(C)(=O)=O)cc(=O)c3c2F)n1 [Example 31, 3-(5,7-Difluoro-6-((6-methylpyridin-2-yl)ethynyl)-4-oxo-1,4-dihydroquinolin-2-yl)-4-(methylsulfonyl)benzonitrile] | 
17 | < 0.1 µM | 343% | Cc1cncc(C)c1C#Cc1c(F)cc2[nH]c(-c3cc(C#N)ccc3S(C)(=O)=O)cc(=O)c2c1F [Example 32, 3-(6-((3,5-Dimethylpyridin-4-yl)ethynyl)-5,7-difluoro-4-oxo-1,4-dihydroquinolin-2-yl)-4-(methylsulfonyl)benzonitrile] | 
18 | < 0.1 µM | 502% | CS(=O)(=O)c1ccc(C#N)cc1-c1cc(=O)c2c(F)c(C#Cc3ccccc3Cl)c(F)cc2[nH]1 [Example 33, 3-(6-((2-Chlorophenyl)ethynyl)-5,7-difluoro-4-oxo-1,4-dihydroquinolin-2-yl)-4-(methylsulfonyl)benzonitrile] | 
19 | < 0.1 µM | 243% | Cc1noc(C)c1C#Cc1c(F)cc2[nH]c(-c3cc(C#N)ccc3S(C)(=O)=O)cc(=O)c2c1F [Example 35, 3-(6-((3,5-Dimethylisoxazol-4-yl)ethynyl)-5,7-difluoro-4-oxo-1,4-dihydroquinolin-2-yl)-4-(methylsulfonyl)benzonitrile] | 
20 | < 0.1 µM |  | COc1cccnc1C#Cc1c(F)cc2[nH]c(-c3cc(C#N)ccc3S(C)(=O)=O)cc(=O)c2c1F [Example 38, 3-(5,7-Difluoro-6-((3-methoxypyridin-2-yl)ethynyl)-4-oxo-1,4-dihydroquinolin-2-yl)-4-(methylsulfonyl)benzonitrile] | 
21 | < 0.1 µM | 406% | Cc1ccc(C#Cc2c(F)cc3[nH]c(-c4cc(C#N)ccc4S(C)(=O)=O)cc(=O)c3c2F)cc1 [Example 39, 3-(5,7-Difluoro-4-oxo-6-(p-tolylethynyl)-1,4-dihydroquinolin-2-yl)-4-(methylsulfonyl)benzonitrile] | 
22 | < 0.1 µM | 237% | CS(=O)(=O)c1ccc(C#N)cc1-c1cc(=O)c2c(F)c(C#Cc3cnc4cccnn34)c(F)cc2[nH]1 [Example 40, 3-(5,7-Difluoro-6-(imidazo[1,2-h]pyridazin-3-ylethynyl)-4-oxo-1,4-dihydroquinolin-2-yl)-4-(methylsulfonyl)benzonitrile] | 
23 | < 0.1 µM | 231% | CS(=O)(=O)c1ccc(C#N)cc1-c1cc(=O)c2c(F)c(C#Cc3ccccc3C#N)c(F)cc2[nH]1 [Example 42, 3-(6-((2-Cyanophenyl)ethynyl)-5,7-difluoro-4-oxo-1,4-dihydroquinolin-2-yl)-4-(methylsulfonyl)benzonitrile] | 
24 | < 0.1 µM | 237% | COc1nccnc1C#Cc1c(F)cc2[nH]c(-c3cc(C#N)ccc3S(C)(=O)=O)cc(=O)c2c1F [Example 43, 3-(5,7-Difluoro-6-((3-methoxypyrazin-2-yl)ethynyl)-4-oxo-1,4-dihydroquinolin-2-yl)-4-(methylsulfonyl)benzonitrile] | 
25 | < 0.1 µM | 447% | CS(=O)(=O)c1ccc(C#N)cc1-c1cc(=O)c2c(F)c(C#Cc3ccccc3F)c(F)cc2[nH]1 [Example 51, 3-(5,7-Difluoro-6-((2-fluorophenyl)ethynyl)-4-oxo-1,4-dihydroquinolin-2-yl)-4-(methylsulfonyl)benzonitrile] | 
